pIC50: −log10 of the molar value. Where two headings read alike, the source gives them in different places.

In one experiment the target is T1, activated MEK1 (Homo sapiens, UniProt Q02750).
T1 construct: purchased Millipore 14-429
The experiment in a line: MEK Lance Ultra experiment. The format is biochemical. The following applies: 0.07 nM activated MEK1, 2 nM non-activated ERK, 50 μM ATP; read-out: MEK potency IC50. How it is done: Biological Test Method 1: MEK Lance Ultra Experiment Compounds were serially diluted three-fold to 10 concentrations, two duplicates were set. Final test concentrations of the compounds ranged from 10 μM to 0.51 nM. 0.07 nM activated MEK1 (Millipore #14-429) and 2 nM non-activated ERK (Millipore #14-515) were mixed with the compounds or DMSO, the mixture was incubated at 23° C. for 30 minutes. Then 50 nM ULight labeled MBP (PerkinElmer #TRF0109-M) and 50 μM ATP (Invitrogen #PV3227) were added to initiate the reaction, and the mixture was incubated at 23° C. for 90 minutes. After the reaction was stopped by adding EDTA at a final concentration of 15 mM, 2 nM Eu-labeled anti-phosphorylated antibody (PerkinElmer #TRF0201-M) was added and incubated for 1 hour. The fluorescence signal data (excitation band: 320 nm; emission band: 665 nM/615 nM) was determined by an Envision microplate reader (PerkinElmer). XLfit5 software was used for data analysis and mapping.

The next experiment relates to HT29 cells. The experiment can be described thus: Cell viability experiment (Cell Titer-Glo), HT29. The format is cell-based, human. How it is done:
(§1) Biological Test Method 2: Cell Viability Experiment
(§2) HT29 and A375 cells were plated in a 96-well cell culture plate at a density of 40,000 cells/well and 20,000 cells/well respectively, and the cells were cultured overnight. The compounds were serially diluted in a gradient of 1:3, the dilutions were added to the cell culture medium, and incubated with the cells in a 37° C. incubator for 3 days. The 96-well cell culture plate was taken from the incubator and equilibrated at room temperature for 30 minutes, then Cell Titer-Glo reagent (Promega Cat #G7573) was added at a ratio of 1:2, and the mixture was mixed thoroughly on a shaker for 2 minutes to promote cell lysis. The cell culture plate was incubated at room temperature for 10 minutes and then read on an Envision microplate reader (PerkinElmer). XLfit5 software was used for data analysis and mapping.

The subject of the next experiment is A375 cells. The experiment in a line: Cell viability experiment (Cell Titer-Glo), A375. The format is cell-based. How it is done:
as §1, §2

Setting [1] is: Homo sapiens, HT-29, 72 h, HT29 cells, 3 days incubation, read-out: HT29 IC50.
Setting [2] is: Homo sapiens, A-375, 72 h, A375 cells, 3 days incubation, read-out: A375 IC50.
Where [3] appears, read: Homo sapiens, HT-29, 72 h, read-out: HT29 IC50, HT29 cells, 3 days incubation.
[4] abbreviates: Homo sapiens, A-375, 72 h, read-out: A375 IC50, A375 cells, 3 days incubation.
The mark [5] stands for this setting: HT29 cells, 3 days incubation, read-out: HT29 IC50.
The mark [6] stands for this setting: A375 cells, 3 days incubation, read-out: A375 IC50.

T1 sequence (Q02750 whole entry): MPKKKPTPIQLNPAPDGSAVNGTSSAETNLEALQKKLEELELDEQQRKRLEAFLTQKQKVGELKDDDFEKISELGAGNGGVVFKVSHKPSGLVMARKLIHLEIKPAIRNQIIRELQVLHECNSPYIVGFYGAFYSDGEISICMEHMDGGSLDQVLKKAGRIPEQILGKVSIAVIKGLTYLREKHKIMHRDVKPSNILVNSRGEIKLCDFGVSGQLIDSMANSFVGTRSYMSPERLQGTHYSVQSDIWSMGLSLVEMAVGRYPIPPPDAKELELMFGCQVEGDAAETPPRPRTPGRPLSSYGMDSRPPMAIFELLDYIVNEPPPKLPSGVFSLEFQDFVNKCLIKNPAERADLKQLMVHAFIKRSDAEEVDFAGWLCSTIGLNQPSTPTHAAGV

With `Cc1c(Nc2ccc(I)cc2F)c2c(=O)n(C3CC3)c(C)c(-c3cccc(NC(=O)NC(C)(C)C)c3)c2oc1=O` [WX104], the results for the pIC50 at activated MEK1, in the experiment on HT29 cells (setting [1]) and with A375 cells (setting [2]) were 6.93, 7.55 and 7.98, respectively.
For `COCCn1c(C)cc2oc(=O)c(C)c(Nc3ccc(I)cc3F)c2c1=O` [WX060] the same measures were 7.06, 6.94 and 7.17.
On the same counts, the results for `Cc1c(Nc2ccc(I)cc2F)c2c(=O)n(C3CC3)c(C)c(-c3ccnc(N)c3)c2oc1=O` [WX079] are 7.45, 8.26 and 8.49.
For `COC(OC)C(=O)Nc1cccc(-c2c(C)n(C3CC3)c(=O)c3c(Nc4ccc(I)cc4F)c(C)c(=O)oc23)c1` [WX081] the same measures were 6.98, 7.89 and 8.28.
In the case of `CNC(=O)Nc1cccc(-c2c(C)n(C3CC3)c(=O)c3c(Nc4ccc(I)cc4F)c(C)c(=O)oc23)c1` [WX099], the pIC50 is 7.31 on activated MEK1, 7.91 in the experiment with HT29 cells (setting [1]) and 8.33 with A375 cells (setting [2]).
On the same counts, the results for `CC(=O)Nc1cccc(-c2c(C)n(CC(O)CO)c(=O)c3c(Nc4ccc(I)cc4F)c(C)c(=O)oc23)c1` (stereo not drawn) [WX058] are 7.08, 6.99 and 7.04.
For `CC(=O)Nc1cccc(-c2c(C)n(CCN(C)C(C)=O)c(=O)c3c(Nc4ccc(I)cc4F)c(C)c(=O)oc23)c1` [WX056] the same measures were 7.27, 5.55 and 5.81.
In the case of `CC(=O)Nc1cccc(Cc2c(C)n(C3CC3)c(=O)c3c(Nc4ccc(I)cc4F)c(C)c(=O)oc23)c1` [WX102], the pIC50 was 7.91 on activated MEK1, 8.69 with HT29 cells (setting [1]) and 9.43 with A375 cells (setting [2]).
For `Cc1c(Nc2ccc(I)cc2F)c2c(=O)n(C3CC3)c(C)c(-c3cccc(C[S+](C)[O-])c3)c2oc1=O` (single isomer, unassigned) [WX083] the same measures were 6.83, 7.98 and 8.06.
For `CC(=O)Nc1cccc(-c2c(C)n(CCN(C)S(C)(=O)=O)c(=O)c3c(Nc4ccc(I)cc4F)c(C)c(=O)oc23)c1` [WX055] the same measures were 7.15, 6.01 and 6.19.
On the same counts, the results for `CCS(=O)(=O)Nc1cccc(-c2c(C)n(C3CC3)c(=O)c3c(Nc4ccc(I)cc4F)c(C)c(=O)oc23)c1` [WX082] are 7.01, 8.41 and 8.76.
On to `Cc1ccccc1-c1c(C)n(C2CC2)c(=O)c2c(Nc3ccc(I)cc3F)c(C)c(=O)oc12` [WX111], for which the pIC50 was 7.84 on activated MEK1, 7.83 with HT29 cells (setting [1]) and 8.45 with A375 cells (setting [2]).
As for `COCCCn1c(C)cc2oc(=O)c(C)c(Nc3ccc(I)cc3F)c2c1=O` [WX057], the results for the pIC50 at activated MEK1, in the experiment with HT29 cells (setting [1]) and in the experiment with A375 cells (setting [2]) were 7.11, 7.14 and 7.62, respectively.
On the same counts, the results for `Cc1c(Nc2ccc(I)cc2F)c2c(=O)n(C3CC3)c(C)c(-c3cccc(NCCO)c3)c2oc1=O` [WX093] are 6.96, 7.63 and 8.06.
Regarding `Cc1c(CS(=O)(=O)C2CC2)cccc1-c1c(C)n(C2CC2)c(=O)c2c(Nc3ccc(I)cc3F)c(C)c(=O)oc12` [WX108], the pIC50 at activated MEK1 is 7.53; with HT29 cells (setting [3]), 7.88; in the experiment on A375 cells (setting [4]), 8.64.
For `Cc1[nH]c(=O)c2c(Nc3ccc(I)cc3F)c(C)c(=O)oc2c1-c1cccc(NS(C)(=O)=O)c1C` (single isomer, unassigned) [WX119], the pIC50 at activated MEK1 was 7.74; in the experiment on HT29 cells (setting [5]), 7.72; in the experiment on A375 cells (setting [6]), 8.23.
Take `CNCCn1c(C)c(-c2cccc(NC(C)=O)c2)c2oc(=O)c(C)c(Nc3ccc(I)cc3F)c2c1=O` [WX054]: the values for the pIC50 at activated MEK1, in the experiment with HT29 cells (setting [1]) and in the experiment on A375 cells (setting [2]) were 7.09, 6.48 and 6.32, respectively.
As to `Cc1c(Nc2ccc(I)cc2F)c2c(=O)n(C3CC3)c(C)c(-c3cccc(CS(=O)(=O)CCO)c3)c2oc1=O` [WX100], the pIC50 on activated MEK1 was 6.94; in the experiment on HT29 cells (setting [1]), 8.16; with A375 cells (setting [2]), 8.68.
As to `Cc1[nH]c(=O)c2c(Nc3ccc(I)cc3F)c(C)c(=O)oc2c1-c1cccc(NS(C)(=O)=O)c1C` (single isomer, unassigned) [WX118], the pIC50 at activated MEK1 was 7.49; in the experiment on HT29 cells (setting [5]) it was 8.75; with A375 cells (setting [6]), 9.39.
With `Cc1c(Nc2ccc(I)cc2F)c2c(=O)n(C3CC3)c(C)c(-c3cccc(CNS(N)(=O)=O)c3)c2oc1=O` [WX092], the pIC50 on activated MEK1 is 6.75; in the experiment on HT29 cells (setting [1]), 8.05; in the experiment with A375 cells (setting [2]) it was 8.12.
For `CC(=O)Nc1cncc(-c2c(C)n(C3CC3)c(=O)c3c(Nc4ccc(I)cc4F)c(C)c(=O)oc23)n1` [WX115] the same measures were 7.39, 7.80 and 8.29.
For `COCCCn1c(C)c(-c2cccc(NC(C)=O)c2)c2oc(=O)c(C)c(Nc3ccc(I)cc3F)c2c1=O` [WX062] the same measures were 7.17, 6.13 and 6.20.
Turning to `Cc1c(CS(C)(=O)=O)cccc1-c1c(C)n(C2CC2)c(=O)c2c(Nc3ccc(I)cc3F)c(C)c(=O)oc12` [WX106], the pIC50 at activated MEK1 is 7.52; with HT29 cells (setting [3]), 8.23; with A375 cells (setting [4]), 8.63.
On to `CCc1c(Nc2ccc(I)cc2F)c2c(=O)n(C3CC3)c(C)c(-c3cccc(CS(C)(=O)=O)c3C)c2oc1=O` [WX110], for which the pIC50 at activated MEK1 is 7.03; with HT29 cells (setting [1]), 6.68; in the experiment on A375 cells (setting [2]), 7.02.
On the same counts, the results for `Cc1c(Nc2ccc(I)cc2F)c2c(=O)n(C3CC3)c(C)c(-c3cccc(C[S+](C)[O-])c3)c2oc1=O` (stereo not drawn) [WX068] are 7.46, 8.01 and 8.44.
For `COC(=O)Nc1cccc(-c2c(C)n(C3CC3)c(=O)c3c(Nc4ccc(I)cc4F)c(C)c(=O)oc23)c1` [WX094] the same measures were 7.34, 7.72 and 8.26.
On the same counts, the results for `Cc1c(Nc2ccc(I)cc2F)c2c(=O)n(C3CC3)c(C)c(-c3cccc(NS(=O)(=O)C4CC4)c3)c2oc1=O` [WX089] are 7.21, 8.88 and 9.33.
In the case of `CC(=O)Nc1cccc(-c2c(C)n(C3CC3)c(=O)c3c(Nc4ccc(I)cc4F)c(C)c(=O)oc23)c1C` [WX096], the results for the pIC50 on activated MEK1, in the experiment with HT29 cells (setting [3]) and in the experiment on A375 cells (setting [4]) were 8.06, 7.99 and 8.61, respectively.
Consider `Cc1c(Nc2ccc(I)cc2F)c2c(=O)n(C3CC3)c(C)c(-c3cccc(CNS(C)(=O)=O)c3)c2oc1=O` [WX088], for which the negative logarithm of the IC50 (pIC50) was 7.34 at activated MEK1, 8.34 in the experiment with HT29 cells (setting [1]) and 8.67 in the experiment on A375 cells (setting [2]).
Turning to `CC(=O)NCc1cccc(-c2c(C)n(C3CC3)c(=O)c3c(Nc4ccc(I)cc4F)c(C)c(=O)oc23)c1` [WX069], the pIC50 was 7.38 on activated MEK1, 7.39 in the experiment with HT29 cells (setting [1]) and 8.18 in the experiment on A375 cells (setting [2]).
For `Cc1c(Nc2ccc(I)cc2F)c2c(=O)n(C3CC3)c(C)c(-c3cccc(CN(C)C)c3)c2oc1=O` [WX098] the same measures were 7.54, 7.04 and 7.92.
For `Cc1c(Nc2ccc(I)cc2F)c2c(=O)n(C3CC3)c(C)c(-c3cccc(C[S+](C)[O-])c3)c2oc1=O` (single isomer, unassigned) [WX084], the pIC50 at activated MEK1 was 6.76; in the experiment on HT29 cells (setting [5]) it was 7.76; in the experiment with A375 cells (setting [6]), 8.21.
As for `Cc1c(Nc2ccc(I)cc2F)c2c(=O)n(CC(O)CO)c(C)cc2oc1=O` (stereo not drawn) [WX053], the pIC50 at activated MEK1 is 7.03; in the experiment on HT29 cells (setting [1]), 8.04; with A375 cells (setting [2]), 8.49.
For `Cc1c(Nc2ccc(I)cc2F)c2c(=O)n(C3CC3)c(C)c(-c3cccc(NC(N)=O)c3)c2oc1=O` [WX103], the pIC50 on activated MEK1 is 7.31; in the experiment on HT29 cells (setting [1]) it was 7.69; with A375 cells (setting [2]) it was 8.18.
On the same counts, the results for `COCCn1c(C)c(-c2cccc(NC(C)=O)c2)c2oc(=O)c(C)c(Nc3ccc(I)cc3F)c2c1=O` [WX061] are 7.24, 6.35 and 6.35.
Regarding `Cc1c(Nc2ccc(I)cc2F)c2c(=O)n(C3CC3)c(C)c(-c3cccc(NS(C)(=O)=O)c3Cl)c2oc1=O` (single isomer, unassigned) [WX116], the pIC50 is 7.46 at activated MEK1; 9.09 in the experiment with HT29 cells (read-out: HT29 IC50, HT29 cells, 3 days incubation); 9.41 with A375 cells (read-out: A375 IC50, A375 cells, 3 days incubation).

The record behind these values is patent US11021486B2, “Coumarin-like cyclic compound as MEK inhibitor and use thereof” (CSTONE PHARMACEUTICALS, priority 2017, dated 2021).
